Assay results taken from patent US8754073B2, “Substituted piperazino-dihydrothienopyrimidines” (Boehringer Ingelheim International GmbH, priority 2007, dated 2014).
Structures can show the parent of a compound that is named as a salt.

Target: PDE4B (Homo sapiens, UniProt Q07343)
Test: Scintillation Proximity Assay (SPA) of PDE4B enzyme activity ([H3]-cAMP cleavage)
Assay type: biochemical
Conditions: test substance 1 μM
Outline: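 Percent inhibition at 1 μM compound, measured against an uninhibited reaction. PDE4B hydrolysed tritiated cAMP for one hour at 30 °C, then scintillator beads were added to capture [H3]-5′-AMP. Light events were counted after 45 min bead settling.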

[1] = one-hour incubation with [H3]-cAMP at 30° C.
[2] = one-hour incubation of [H3]-cAMP with PDE4B enzyme at 30° C.

Sequence of PDE4B (Q07343 whole entry, species assumed): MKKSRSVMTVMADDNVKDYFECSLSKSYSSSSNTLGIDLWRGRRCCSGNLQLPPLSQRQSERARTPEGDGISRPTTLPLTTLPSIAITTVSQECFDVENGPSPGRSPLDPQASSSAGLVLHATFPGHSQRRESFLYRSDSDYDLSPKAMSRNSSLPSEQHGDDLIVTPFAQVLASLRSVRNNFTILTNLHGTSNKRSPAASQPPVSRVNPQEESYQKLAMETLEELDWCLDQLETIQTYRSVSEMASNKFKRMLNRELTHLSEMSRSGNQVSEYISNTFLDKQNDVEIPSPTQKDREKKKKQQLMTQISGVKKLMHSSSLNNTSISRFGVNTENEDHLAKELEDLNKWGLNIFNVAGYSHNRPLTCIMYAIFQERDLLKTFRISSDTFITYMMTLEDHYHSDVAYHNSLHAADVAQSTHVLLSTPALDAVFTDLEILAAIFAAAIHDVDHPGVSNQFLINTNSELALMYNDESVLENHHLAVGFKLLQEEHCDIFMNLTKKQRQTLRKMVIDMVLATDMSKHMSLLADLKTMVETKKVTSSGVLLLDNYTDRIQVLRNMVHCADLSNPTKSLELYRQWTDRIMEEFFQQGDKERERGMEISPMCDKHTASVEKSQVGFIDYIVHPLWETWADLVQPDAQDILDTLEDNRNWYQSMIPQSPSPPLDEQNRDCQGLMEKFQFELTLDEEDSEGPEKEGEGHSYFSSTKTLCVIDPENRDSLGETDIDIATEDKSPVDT

SMILES	inhibition at 1 µM [1] [%]	inhibition at 1 µM [2] [%]
COC(=O)C1(c2ccccc2)CCN(c2nc3c(c(N[C@H]4CCC(=O)N(C)C4)n2)[S+]([O-])CC3)CC1 (some centres unmarked) [Example 205, methyl 1-[4-(1-methyl-6-oxopiperidin-3-ylamino)-5-oxo-6,7-dihydro-5H-5λ^4-thieno[3,2-d]pyrimidin-2-yl]-4-phenylpiperidine-4-carboxylate]	96	
CS(=O)(=O)N1CC2(CCN(c3nc4c(c(Nc5cccc(F)c5)n3)[S+]([O-])CC4)CC2)c2ccccc21 (centres unmarked) [Example 74]		95
CCCN1C[C@@H](Nc2nc(N3CCC(c4ccc(Cl)cc4)CC3)nc3c2[S+]([O-])CC3)CCC1=O (some centres unmarked) [Example 201, 5-{2-[4-(4-chlorophenyl)-piperidin-1-yl]-5-oxo-6,7-dihydro-5H-5λ^4-thieno[3,2-d]pyrimidin-4-ylamino}-1-propylpiperidin-2-one]	95	
CN1CCc2ccc(OC3CCN(c4nc5c(c(NC6CCOCC6)n4)[S+]([O-])CC5)CC3)cc2CC1 (centres unmarked) [Example 186, (2-[4-(3-Methyl-2,3,4,5-Tetrahydro-1H-Benzo[d]Azepin-7-Yloxy)-Piperidin-1-Yl]-5-Oxo-6,7-Dihydro-5H-5λ^4-Thieno[3,2-d]Pyrimidin-4-Yl)-(Tetrahydropyran-4-Yl)-Amine]	96	
[O-][S+]1CCc2nc(N3CCC(c4c[nH]c5ccccc45)CC3)nc(NC3(CO)CC3)c21 (centres unmarked) [Example 26]		96
CC(C)[C@H](CO)Nc1nc(N2CCC(Oc3ccc(F)cc3)CC2)nc2c1[S+]([O-])CC2 (some centres unmarked) [Example 168]	89	
[O-][S+]1CCc2nc(N3CCC(c4nc(-c5ccncc5)no4)CC3)nc(Nc3cccc(F)c3)c21 (centres unmarked) [Example 147, (3-Fluorophenyl)-{5-Oxo-2-[4-(3-Pyridin-4-Yl-[1,2,4]Oxadiazol-5-Yl)-Piperidin-1-Yl]-6,7-Dihydro-5H-5λ^4-Thieno[3,2-d]Pyrimidin-4-Yl}-Amine Trifluoroacetate]		95
COC(=O)c1ccc(C2CCN(c3nc4c(c(NC5CCOCC5)n3)[S+]([O-])CC4)CC2)cc1 (centres unmarked) [Example 119]		95
[O-][S+]1CCc2nc(N3CCC(c4cccc(F)c4)CC3)nc(NC3CCOCC3)c21 (centres unmarked) [Example 86]		94
[O-][S+]1CCc2nc(N3CCC(c4ccc(C(F)(F)F)cc4)CC3)nc(NC3CCOCC3)c21 (centres unmarked) [Example 96, {5-Oxo-2-[4-(4-Trifluoromethylphenyl)-Piperidin-1-Yl]-6,7-Dihydro-5H-5λ^4-Thieno[3,2-d]Pyrimidin-4-Yl}-(Tetrahydropyran-4-Yl)-Amine]		94
[O-][S+]1CCc2nc(N3CCC(Oc4ccc5c(c4)OCO5)CC3)nc(NC3CCOCC3)c21 (centres unmarked) [Example 174]	92	
[O-][S+]1CCc2nc(N3CCC(O)(c4cc(F)cc(F)c4)CC3)nc(NC3CCOCC3)c21 (centres unmarked) [Example 62]		96
CN1C[C@@H](Nc2nc(N3CCC(C(=O)c4ccc(F)cc4)(c4ccc(F)cc4)CC3)nc3c2[S+]([O-])CC3)CCC1=O (some centres unmarked) [Example 203, 5-{2-[4-(4-fluorobenzoyl)-4-(4-fluorophenyl)-piperidin-1-yl]-5-oxo-6,7-dihydro-5H-5λ^4-thieno[3,2-d]pyrimidin-4-ylamino}-1-methylpiperidin-2-one]	96	
COCC(=O)NCC1(c2ccccc2)CCN(c2nc3c(c(N[C@H]4CCC(=O)N(C)C4)n2)[S+]([O-])CC3)CC1 (some centres unmarked) [Example 202, 2-methoxy-N-{1-[4-(1-methyl-6-oxopiperidin-3-ylamino)-5-oxo-6,7-dihydro-5H-5λ^4-thieno[3,2-d]pyrimidin-2-yl]-4-phenylpiperidin-4-ylmethyl}-acetamide]	96	
N#CC1(c2ccccc2)CCN(c2nc3c(c(NC4CCOCC4)n2)[S+]([O-])CC3)CC1 (centres unmarked) [Example 70]		95
[O-][S+]1CCc2nc(N3CCC(c4cccc(Br)c4)CC3)nc(NC3(CO)CC3)c21 (centres unmarked) [Example 94]		94

More lines, now with the values ahead:

inhibition at 1 µM [1] [%]	inhibition at 1 µM [2] [%]	SMILES
85		Cn1c(C2CCN(c3nc4c(c(NC5CCOCC5)n3)[S+]([O-])CC4)CC2)nc2cnccc21 (centres unmarked) [Example 210, {2-[4-(1-methyl-1H-imidazo[4,5-c]pyridin-2-yl)-piperidin-1-yl]-5-oxo-6,7-dihydro-5H-5λ^4-thieno[3,2-d]pyrimidin-4-yl}-(tetrahydropyran-4-yl)-amine]
95		CN(C)CC(=O)NCC1(c2ccccc2)CCN(c2nc3c(c(N[C@H]4CCC(=O)N(C)C4)n2)[S+]([O-])CC3)CC1 (some centres unmarked) [Example 206, 2-dimethylamino-N-{1-[4-(1-methyl-6-oxopiperidin-3-ylamino)-5-oxo-6,7-dihydro-5H-5λ^4-thieno[3,2-d]pyrimidin-2-yl]-4-phenylpiperidin-4-ylmethyl}-acetamide]
92		Cc1nn(C)cc1CNC(=O)c1cccc(C2CCN(c3nc4c(c(NC5CCOCC5)n3)[S+]([O-])CC4)CC2)c1 (centres unmarked) [Example 259]
93		N#Cc1ccc(OC2CCN(c3nc4c(c(NC5CCOCC5)n3)[S+]([O-])CC4)CC2)cc1 (centres unmarked) [Example 321]
91		COCC1(c2ccc(Cl)cc2)CCN(c2nc3c(c(NC4CCOCC4)n2)[S+]([O-])CC3)CC1 (centres unmarked) [Example 302]
94		CN1CCC(N(C)C(=O)c2ccc(C3CCN(c4nc5c(c(NC6CCOCC6)n4)[S+]([O-])CC5)CC3)cc2)CC1 (centres unmarked) [Example 228]
95		CC(C)(NC(=O)c1ccc(OC2CCN(c3nc4c(c(NC5CCOCC5)n3)[S+]([O-])CC4)CC2)cc1)c1ccncc1 (centres unmarked) [Example 236]
91		[O-][S+]1CCc2nc(N3CCC(c4nnc(-c5ccccc5)o4)CC3)nc(NC3(CO)CC3)c21 (centres unmarked) [Example 318]
89		CS(=O)(=O)NCC1(c2ccccc2)CCN(c2nc3c(c(NC4(CO)CC4)n2)[S+]([O-])CC3)CC1 (centres unmarked) [Example 324]
88		CC(C)[C@H](CO)Nc1nc(N2CCC(CNS(C)(=O)=O)(c3ccccc3)CC2)nc2c1[S+]([O-])CC2 (some centres unmarked) [Example 326]
95		Cc1nn(C)cc1C(C)NC(=O)c1ccc(OC2CCN(c3nc4c(c(NC5CCOCC5)n3)[S+]([O-])CC4)CC2)cc1 (centres unmarked) [Example 244]
89		CC(C)(C)OC(=O)N[C@@H]1CC1Nc1nc(N2CCC(c3ccc(Cl)cc3)CC2)nc2c1[S+]([O-])CC2 (some centres unmarked) [Example 222, tert-butyl (2-{2-[4-(4-chlorophenyl)-piperidin-1-yl]-5-oxo-6,7-dihydro-5H-5λ^4-thieno[3,2-d]pyrimidin-4-ylamino}-cyclopropyl)-carbamidate]
84		NC1CC1Nc1nc(N2CCC(c3ccc(Cl)cc3)CC2)nc2c1[S+]([O-])CC2 (single isomer, unassigned) [Example 232, N-{2-[4-(4-Chlorophenyl)-Piperidin-1-Yl]-5-Oxo-6,7-Dihydro-5H-5λ^4-Thieno[3,2-d]Pyrimidin-4-Yl}-Cyclopropan-1,2-Diamine]
88		COCC(=O)NCC1(c2ccccc2)CCN(c2nc3c(c(NC4CCOCC4)n2)[S+]([O-])CC3)CC1 (centres unmarked) [Example 217]
95		[O-][S+]1CCc2nc(N3CCC(c4nnc(-c5ccccc5)o4)CC3)nc(NC3CCOCC3)c21 (centres unmarked) [Example 317]
87		[O-][S+]1CCc2nc(N3CCC(CO)(c4ccc(Cl)cc4)CC3)nc(NC3CCOCC3)c21 (centres unmarked) [Example 281]
